These results are taken from patent US20240208998A1, “COMPOUNDS FOR USE IN THE TREATMENT OF HYPERPROLIFERATIVE DISORDERS” (FUNDACIÓ PRIVADA INSTITUT D'INVESTIGACIÓ ONCOLÓGICA DE VALL …, priority 2021, published 2024).

SMILES strings stand for the structures.

One data set has as its target human TET2 construct (Homo sapiens, UniProt Q6N021, A1837G/A1840G/D1704G/D1842G/DEL1471-1702/DEL1708-1833/E1841G/F1706G/N1843S/Q1834G/V1836G). The experiment in a line: Determination of TET2 binding by Surface Plasmon Resonance. The note with it: SPR, Biacore T200, 25° C., steady state fit to single site interaction model. The protocol:
The human methylcytosine dioxygenase TET2 construct used (1129-2002 with residues 1471-1843 replaced by a 15-residue GS-linker) was expressed in a pET-28a(+)psumo vector with kanamycin resistance and an N-terminal His6 tag, and cloned in Rosetta D3 Escherichia coli competent cells. Transformed cells were cultured overnight in 10 mL of LB media supplied with kanamycin (50 μg/mL), then scaled to 1 L LB medium supplied with kanamycin (50 μg/mL) and grown at 37° C. Once the optical density (OD600) achieved 0.8, protein expression was induced with 0.4 mM isopropyl-β-thiogalactopyranoside (IPTG) overnight at 18° C. Cells were harvested by centrifugation (8,000 rpm, 4° C., 30 min) and the pellet obtained was resuspended in 15 mL of buffer A (50 mM Hepes, 150 mM NaCl, 30 mM imidazole, 2 mM β-mercaptoethanol (pH 8.0) supplemented with Pierce protease inhibitor cocktail (ThermoFisher Scientific)) and lysed by sonication (1 min 40 s: 10 cycles×10 s ON, 30 s OFF, A=35%, T=19° C.) followed by two consecutive centrifugations (8,000 rpm, 4° C., 30 min) to clarify the lysate.
The TET2 protein was purified using an AKTA Start system (GE Healthcare, Uppsala, Sweden) by two-step purification procedure: one His-affinity chromatography followed by a size exclusion chromatography. First, the protein fraction obtained during the lysis (supernatant) was applied to a 5 mL HisTrap HP column (GE Healthcare), washed with buffer A (50 mM Hepes, 150 mM NaCl, 30 mM imidazole, 2 mM […] (pH 8.0)) and the bound protein was eluted with buffer B (50 mM Hepes, 150 mM NaCl, 250 mM imidazole, 2 mM β-mercaptoethanol (pH 8.0)). The eluted protein-containing fractions were pooled and concentrated up to 4 mL for the last purification step: a size exclusion chromatography (HiPrep 16/60 Sephacryl S-100 HR) in 50 mM Hepes, 150 mM NaCl, 2 mM β-mercaptoethanol (pH 8.0). Finally, the mass and purity of the protein were verified by SDS-electrophoresis and mass spectrometry.
The binding of compounds of the examples was determined by Surface Plasmon Resonance (SPR) using a Biacore T200 SPR biosensor instrument (GE Healthcare, Uppsala, Sweden) at 25° C. The human TET2 construct was immobilized on a CM5 sensor chip using a standard covalent immobilization via amine coupling following the activation of the carboxymethyl dextran matrix of the sensor chip (injection of a solution containing 0.1 M N-hydroxysuccinimide and 0.4 M 1-ethyl-3-[3-(dimethylamino)propyl]carbodiimide hydrochloride at a flow rate of 15 μL/min for 7 min). The protein immobilization was achieved after the injection of 5 μg/mL TET2 in 10 mM sodium acetate (pH 4.0) at a flow rate of 5 μL/min. Unreacted activated groups of the dextran matrix were deactivated by injection of 1 M ethanolamine hydrochloride for 7 min at a flow rate of 15 μL/min. The corresponding matrix activation and protein immobilization were performed using as a running buffer a phosphate buffered saline solution (1.05× PBS: 10 mM phosphate, pH 7.4, 150 mM NaCl). The screened compounds were prepared in a 20 mM stock solution in DMSO and diluted with 1.05× PBS to achieve a final 5% (v/v) DMSO concentration. The running buffer of the interaction assays consisted of 1×PBS, 5% (v/v) DMSO. The flow rate used for the screening was 60 μL/min and the ligand association and dissociation times set were 60 s and 120 s, respectively.
For data analysis the software used was the Biacore T200 Evaluation software. Different corrections were applied. First, the nonspecific binding to the chip surface and the baseline drift were corrected subtracting the signals of a reference surface (where the immobilization procedure was carried out without proteins) to the signals obtained on the TET2 surface. Second, a series of solvent standards (solvent correction) were introduced to remove the differences derived from the DMSO. Finally, the background was corrected subtracting blank injections (blank subtraction) to the injected compound signals.
For orientation: In SPR one partner is held on a chip, and binding of the other changes the refractive index at the surface.

Another data set deals with HL60 cell line. The experiment in a line: Antiproliferative activity on HL60 cell line (CellTiter-Glo). Conditions: Homo sapiens, HL-60; HL60, 72 h of treatment. It counts as cell-based. As for the experimental part:
The human leukaemic cell line HL60 was grown in suspension in RPMI 1640 medium containing 10% (v/v) FBS and 1% (v/v) P/S (Life Technologies). […] Leukaemia cells were suspended at a density of 2×10^5 cells/mL in complete RPMI 1640 medium and 25 μL were seeded in each well (5×10^3 final total cells/well). A 10 μM solution of the compounds of examples 1, 12 and 21, and a 25 μM solution of all other compounds were prepared in complete medium, and then serially diluted (1:2) (as specified in Table 3 below). A solution of complete medium with DMSO was used as a vehicle control.
Twenty-five microliters of each serially diluted compound solution were added to the corresponding wells of the plate (50 μL of final volume/well). After 48 h of treatment, 50 μL of fresh 2X serially diluted compound solution was added to their corresponding wells (100 μL of final volume/well). After twenty-four additional hours, an equal volume (100 μL) of CellTiter-Glo Reagent (Promega) was added to each well, plates were shaken during 2 min and incubated at rt for 10 min. Luminescence was recorded using a Spark multimode microplate reader and an integration time of 1 s per well.
A general note: In ATP-based viability assays light output follows the ATP content of the culture.

Another data set relates to A375 (melanoma). The data set can be described thus: Antiproliferative activity on other tumour cell lines (CellTiter-Glo): A375. The format is cell-based. Conditions: Homo sapiens, A-375; A375, 72 h of treatment. As for the experimental part:
(§1) Other human adherent cancer cell lines were cultured in their corresponding cell medium (as specified in Table 4) supplemented with 10% FBS (v/v) and 1% P/S (v/v). Twenty-four hours prior to treatment with the compounds to be tested (Examples 1, 12 and 21), the cells were seeded in 96-well plates at different densities depending of the cell line (as specified in Table 4).
(§2) Depending on the cell line, a 50, 125 or 250 μM solution of the compounds of examples 1, 12 and 21 were prepared in complete medium, and then serially diluted (1:2) (Table 5). A solution of complete medium with DMSO was used as a vehicle control.
(§3) Fifty microliters of each serially diluted compound solution was added by medium replacement in two wells (by duplicate). After 48 h of treatment, 50 μL of fresh 2X serially diluted compound solution was added to the corresponding wells of the plate (100 μL of final volume/well). After twenty-four additional hours (a total of 72 h of treatment), an equal volume (100 μL) of CellTiter-Glo Reagent (Promega) was added to each well, plates were shaken during 2 min and incubated at rt for 10 min. Luminescence was recorded using a Spark multimode microplate reader and an integration time of 1 s per well.

Another data set deals with LN229 (glioblastoma). The experiment in a line: Antiproliferative activity on other tumour cell lines (CellTiter-Glo): LN229. The note with it: Homo sapiens, LN-229; LN229, 72 h of treatment. The format is cell-based. As for the experimental part: as §1, §2, §3
The next data set concerns T98G (glioblastoma). The data set can be described thus: Antiproliferative activity on other tumour cell lines (CellTiter-Glo): T98G. It counts as cell-based. Conditions: Homo sapiens, 72 h of treatment. The protocol:
as §1, §2, §3

In a further data set the test system is Hop62 (lung). The experiment in a line: Antiproliferative activity on other tumour cell lines (CellTiter-Glo): Hop62. Conditions: Homo sapiens, HOP-62; Hop62, 72 h of treatment. The format is cell-based. The protocol: as §1, §2, §3
Another data set deals with MCF7 (breast). The data set can be described thus: Antiproliferative activity on other tumour cell lines (CellTiter-Glo): MCF7. The format is cell-based. Conditions: Homo sapiens; MCF7, 72 h of treatment. As for the experimental part:
as §1, §2, §3

Another data set relates to MDA-MB-468 (breast). The data set can be described thus: Antiproliferative activity on other tumour cell lines (CellTiter-Glo): MDA-MB-468. It counts as cell-based. Conditions: Homo sapiens, MD-MB-468, 72 h of treatment. The protocol: as §1, §2, §3
Another data set has as its system HCT116 (colon). The experiment in a line: Antiproliferative activity on other tumour cell lines (CellTiter-Glo): HCT116. The format is cell-based. Conditions: Homo sapiens; HCT 116, 72 h of treatment. The protocol:
as §1, §2, §3

For `Cc1[nH]c2ccccc2c1-c1csc(NC(=O)Cc2cn3ccsc3n2)n1` [Example 1, 2-(imidazo[2,1-b]thiazol-6-yl)-N-[4-(2-methyl-1H-indol-3-yl)thiazol-2-yl]acetamide], the melting point (usually the temperature of the solid-liquid transition) lay within 210 to 212 °C. Also, binding at human TET2 construct was put at a Kd of 16 µM. In the data set with HL60 cell line, a half-maximal effect (EC50) was put at 0.113 µM. In addition, the EC50 (as a rule, the concentration that produces a half-maximal response) in the data set with A375 (melanoma) came to 1.4 µM. The EC50 with LN229 (glioblastoma) is 3.3 µM. The same molecule returned an EC50 in the data set on T98G (glioblastoma) of 73.7 µM. In the data set with Hop62 (lung), this molecule showed an EC50 of 40.1 µM. This molecule also yielded an EC50 with MCF7 (breast) of 14.6 µM. This molecule gave an EC50 in the data set with MDA-MB-468 (breast) of 16 µM. In the data set with HCT116 (colon), the response was half-maximal at 12.1 µM (EC50).
For the molecule `Cc1[nH]c2ccccc2c1-c1csc(NC(=O)Cc2cc3ccccc3o2)n1` [Example 18, 2-(benzofuran-2-yl)-N-[4-(2-methyl-1H-indol-3-yl)thiazol-2-yl]acetamide], the melting point is 198 to 200 °C. Binding at human TET2 construct was put at a Kd of 5 µM. This molecule also gave an EC50 in the data set on HL60 cell line of 7.5 µM.
On the same counts, the results for `O=C(Cc1cn2ccsc2n1)Nc1nc(-c2c[nH]c3cccc(Br)c23)cs1` [Example 22, N-[4-(4-bromo-1H-indol-3-yl)thiazol-2-yl]-2-(imidazo[2,1-b]thiazol-6-yl)acetamide] are 233 to 235 °C, 2 µM and 0.266 µM.
The matching figures for `Cc1ccc2[nH]cc(-c3csc(NC(=O)Cc4cn5ccsc5n4)n3)c2c1` [Example 24, 2-(imidazo[2,1-b]thiazol-6-yl)-N-[4-(5-methyl-1H-indol-3-yl)thiazol-2-yl]acetamide]: 160 to 162 °C, 1 µM and 0.912 µM.
